Measured values: patent US20200206198A1, “CFTR CHANNEL ACTIVATOR FOR USE IN THE TREATMENT AND/OR PREVENTION OF GLUTEN SENSITIVITY CONDITIONS” (priority 2017, published 2020)

Experiments:
rhNBD1 ATP binding site = assay: Intrinsic tryptophan (W401) fluorescence of NBD1; set-up: species or system human; conditions: preincubation of rhNBD1 with peptide
Description: To assess the capability of P31-43 peptide to bind NBD1 domain and modify its ATP binding site the intrinsic Tryptophan fluorescence of NBD1 was measured. Experiments were performed in a 0.2 ml fluorimeter cuvette at 25° C. using Varian Cary Eclipse fluorescence spectrophotometer. NBD1 protein was diluted to 1 μM in a buffer containing 50 mM Tris/HCl (pH 7.6), 150 mM NaCl, and 5 mM MgCl2, supplemented with 2 mM ATP and P31-43 5 μM when indicated. All spectra were corrected for buffer fluorescence. Excitation wavelength was adjusted to 292 nm and emission was scanned over the range 300-500 nm.

NBD1 ATPase activity = NBD1 ATPase activity (malachite green kit); assay type: biochemical, human
Description: The measurement of NBD1 ATPase activity was performed with a malachite green based kit supplied by Sigma (cod. MAK113) in accordance with the manufacturer's instructions. The enzyme activity was measured at 620 nm at room temperature using a Multiskan 96 well plates reader.

[1] = test system: rhNBD1 and its double mutants F400A/E403A and P439A/P477A; assay: Native polyacrylamide electrophoresis (BN-PAGE) of biotinylated peptide with rhNBD1; assay type: binding, human
Description: Peptide-protein interactions were further studied exploiting a different biochemical strategy: recombinant NBD1, both wild type and/or its mutants, were incubated at 4° C. for 30′ in 40 mM Tris pH 7.5 in the presence of the biotinylated P31-43 peptide unless otherwise indicated and resolved in native conditions by BN-PAGE (Novex, Invitrogen). The complexes were then blotted onto PVDF membrane in accordance with the manufacturer's instructions and the interacting partners were detected with streptavidin-HRP antibody (PerkinElmer).
e-f, Blue native PAGE western blotting of P31-43 and P57-68 biotinylated peptides in the presence of rhNBD1 (e), and of WT and double NBD1 mutants in the presence of biotinylated P31-43 (0. g, SPR analysis of 4QA peptide on rhNBD1 covalently bound to CMS sensor chip. h-i, treatment of Caco-2 cells with P31-43 or P31-43 modified in different Q or P positions. (h) Assessment in Ussing chambers of CFTR-dependent Cl^− secretion measured by forskolin-induced (Fsk) increase of the chloride current (Isc (μA/cm^2); quantification of the peak CFTR Inhibitor 172 (CFTRinh172)-sensitive Isc (ΔIsc). (i) Assessment of iodide efflux by SPQ fluorescent probe upon stimulation with forskolin (Fsk) expressed as percentage of CFTR function in the presence or absence of peptide challenge. […]

TG2 / NBD1 = assay: Cell-free system with recombinant TG2, NBD1 and synthetic peptide (native PAGE); assay type: biochemical; conditions: Ca2+-activated TG2
Description: FIG. 5: a, Immunoprecipitation of TG2 protein 15 in Caco-2 cells challenged with P57-68, PGAV or P31-43 and blotted with HRP-streptavidin. b, Immunoprecipitation of CFTR protein in Caco-2 cells challenged with P31-43 in the presence of absence of the TG2 inhibitor ZDON or TG2 RNA silencing and 20 blotted with anti-isopeptide glutamime-lysine and anti-TG2 antibodies. c, Recombinant TG2 and/or NBD1 incubated in vitro with P31-43 and solved in native page in the presence or absence of Ca2+. d, Immunoprecipitation of CFTR protein and immunblot with anti-CFTR antibodies or anti-TG2 antibodies. e, Immunoprecipitation of CFTR protein and immunoblot with anti-TG2 or anti-CFTR antibodies; effects of ZDON and BAPTA-AM. f, In situ detection of TG2 activity in Caco-2 cells pulsed with Ca2+ in the presence or absence of VX-770 or Z-DON. Activity assay by immunoblotting of the TG-catalyzed incorporation of 5-biotinamidopentylamine (BAP) and blotting with anti-biotin antibody. g, In situ TG2 activity assay, by immunostaining of the TG-catalysed incorporation of monodansylcadaverin, on Caco-2 cells pre-incubated with VX-770 or Z-DON and then pulsed with P31-43. Scale bar 50 μm. h, Immunoprecipitation of PKAr2a protein and immunoblot with isopeptide glutamime-lysine antibody in Caco-2 cells challenged with P57-68 or P31-43 in the absence or presence of VX-770. (i,j). […]

rhNBD1 ATP binding site, sequence (P13569 389-646 limits assumed): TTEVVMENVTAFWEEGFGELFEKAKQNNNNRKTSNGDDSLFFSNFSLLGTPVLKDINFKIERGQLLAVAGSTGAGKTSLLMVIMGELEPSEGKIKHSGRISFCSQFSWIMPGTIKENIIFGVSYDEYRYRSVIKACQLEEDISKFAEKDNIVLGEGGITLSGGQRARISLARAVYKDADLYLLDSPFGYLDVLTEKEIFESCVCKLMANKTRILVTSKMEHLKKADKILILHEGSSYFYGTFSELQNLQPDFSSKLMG

“α-gliadin peptide LGQQQPFPPQQPY (SEQ ID 1), induces an enterocyte stress response (P31-43 sequence of alpha-gliadin)” was tested, and the “effect on ATP quenching of W401 fluorescence” value (rhNBD1 ATP binding site) was “quenching effect of ATP on W401 fluorescence was reduced”, the IC50 (NBD1 ATPase activity) was about 50 µM and the “binding to native rhNBD1” value [1] was “bound to rhNBD1”. The “binding to rhNBD1 double mutants F400A/E403A and P439A/P477A” value [1] was “attenuated for both rhNBD1 mutants” and the “TG2-catalyzed covalent interaction with NBD1” value (TG2 / NBD1) was “Ca2+-activated TG2 catalyzed covalent interactions between P31-43 and NBD1”.
